According to patent US11524966B1 (Valo Early Discovery, Inc., priority 2017, dated 2022):

biological target: T1, USP28 (His-tagged USP28-FL-mammalian) (Homo sapiens, UniProt Q96RU2); experiment: Ubiquitin-Rhodamine 110 Assay for USP28 Activity, Example A-1(a); type: biochemical; details: Ub-Rh110 assay, Example A-1(a); read-out: USP28 A-1(a) IC50 range
T1 construct: Expression of USP28 (1-1077)-TEV-6*His (pTT5 vector); made in house; host or cells: Expi293f cells (pTT5 vector)
T1 sequence (Q96RU2 1-1077): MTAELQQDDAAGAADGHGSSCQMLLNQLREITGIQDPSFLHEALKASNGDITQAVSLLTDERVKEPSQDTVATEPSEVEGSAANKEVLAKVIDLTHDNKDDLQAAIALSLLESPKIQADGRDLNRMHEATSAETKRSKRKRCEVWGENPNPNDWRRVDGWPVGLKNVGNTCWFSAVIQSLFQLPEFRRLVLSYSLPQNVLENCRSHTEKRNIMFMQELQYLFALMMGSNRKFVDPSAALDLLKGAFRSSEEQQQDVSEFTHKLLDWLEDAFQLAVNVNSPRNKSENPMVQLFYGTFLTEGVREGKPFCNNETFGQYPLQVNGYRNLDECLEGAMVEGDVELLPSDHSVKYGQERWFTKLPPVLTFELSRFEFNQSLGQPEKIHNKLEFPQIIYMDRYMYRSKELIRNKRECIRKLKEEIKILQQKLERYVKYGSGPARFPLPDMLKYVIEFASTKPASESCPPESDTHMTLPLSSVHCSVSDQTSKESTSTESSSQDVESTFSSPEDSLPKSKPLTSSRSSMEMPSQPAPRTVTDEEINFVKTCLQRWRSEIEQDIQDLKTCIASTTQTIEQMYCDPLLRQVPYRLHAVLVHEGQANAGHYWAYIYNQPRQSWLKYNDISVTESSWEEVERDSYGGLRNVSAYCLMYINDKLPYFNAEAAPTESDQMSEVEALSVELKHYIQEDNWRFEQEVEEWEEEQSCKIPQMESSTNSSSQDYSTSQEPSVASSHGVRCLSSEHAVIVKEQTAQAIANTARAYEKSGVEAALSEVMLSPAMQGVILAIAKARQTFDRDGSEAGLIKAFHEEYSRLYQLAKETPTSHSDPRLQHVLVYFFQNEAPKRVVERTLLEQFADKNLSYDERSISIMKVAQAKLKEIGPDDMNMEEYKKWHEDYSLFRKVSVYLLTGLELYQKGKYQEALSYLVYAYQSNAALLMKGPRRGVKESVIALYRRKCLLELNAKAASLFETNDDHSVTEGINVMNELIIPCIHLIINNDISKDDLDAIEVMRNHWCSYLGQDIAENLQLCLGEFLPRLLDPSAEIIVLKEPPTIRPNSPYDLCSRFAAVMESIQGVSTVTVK
Method in brief: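 Full-length His-tagged USP28 (1-1077, Expi293F-expressed; […]) was preincubated 30 min with compound (25 μM–1.3 nM, 10-point 3-fold) in 20 mM Tris-HCl pH 8.0, 3 mM BME, 0.03% BGG, 0.01% Triton X-100. Ub-Rh110 (25 nM) was then added for 45 min at room temperature, stopped with citric acid, and read by fluorescence (485/535 nm).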

First: Cc1ccc2c(N)c(C(=O)N[C@H]3COc4cc(N5CCNCC5)ccc4C3)sc2n1 (single isomer, unassigned) [Example 1-1]
Second: Cc1ccc2c(N)c(C(=O)N[C@@H]3COc4cc(N5CCNCC5)ccc4C3)sc2n1 (single isomer, unassigned) [Example 1-2]
The IC50 of the first is lower: 1 to 50 nM for the first, 200 to 2000 nM for the second.

First: Cc1ccc2c(N)c(C(=O)N[C@H]3COc4cc(N5CC6CCC(C5)N6)ccc4C3)sc2n1 (single isomer, unassigned) [Example 1-3]
Second: Cc1ccc2c(N)c(C(=O)N[C@@H]3COc4cc(N5CC6CCC(C5)N6)ccc4C3)sc2n1 (single isomer, unassigned) [Example 1-4]
The IC50 of the first is lower: 1 to 50 nM for the first, 200 to 2000 nM for the second.

Compared with `Cc1ccc2c(N)c(C(=O)N[C@H]3COc4cc(N5CC6CCCC(C5)N6)ccc4C3)sc2n1` (single isomer, unassigned) [Example 1-5], `Cc1ccc2c(N)c(C(=O)N[C@@H]3COc4cc(N5CC6CCCC(C5)N6)ccc4C3)sc2n1` (single isomer, unassigned) [Example 1-6] is higher in IC50: 1 to 50 nM for the first, 50 to 200 nM for the second. The first is the more potent here.

`Cc1ccc2c(N)c(C(=O)N[C@H]3COc4cc(N5CCN[C@H](C)[C@@H]5C)ccc4C3)sc2n1` (single isomer, unassigned) [Example 1-9] and `Cc1ccc2c(N)c(C(=O)N[C@@H]3COc4cc(N5CCN[C@H](C)[C@@H]5C)ccc4C3)sc2n1` (single isomer, unassigned) [Example 1-10] fall in the same range of IC50: 1 to 50 nM for the first, 1 to 50 nM for the second.

`Cc1ccc2c(N)c(C(=O)N[C@H]3COc4cc(N5CCN[C@H](C)[C@H]5C)ccc4C3)sc2n1` (single isomer, unassigned) [Example 1-11] and `Cc1ccc2c(N)c(C(=O)N[C@@H]3COc4cc(N5CCN[C@H](C)[C@H]5C)ccc4C3)sc2n1` (single isomer, unassigned) [Example 1-12] fall in the same range of IC50: 1 to 50 nM for the first, 1 to 50 nM for the second.

`Cc1ccc2c(N)c(C(=O)N[C@H]3COc4cc(N5CCN[C@@H](C)[C@@H]5C)ccc4C3)sc2n1` (single isomer, unassigned) [Example 1-13] and `Cc1ccc2c(N)c(C(=O)N[C@@H]3COc4cc(N5CCN[C@@H](C)[C@@H]5C)ccc4C3)sc2n1` (single isomer, unassigned) [Example 1-14] fall in the same range of IC50: 50 to 200 nM for the first, 50 to 200 nM for the second.

First: Cc1nc2sc(C(=O)N[C@H]3COc4cc(N5CCNCC5)ccc4C3)c(N)c2cc1F (single isomer, unassigned) [Example 1-15]
Second: Cc1nc2sc(C(=O)N[C@@H]3COc4cc(N5CCNCC5)ccc4C3)c(N)c2cc1F (single isomer, unassigned) [Example 1-16]
The IC50 of the first is lower: 1 to 50 nM for the first, 200 to 2000 nM for the second.

First: Nc1c(C(=O)N[C@H]2COc3cc(N4CC5CCC(C4)N5)ccc3C2)sc2ncc(F)cc12 (single isomer, unassigned) [Example 1-17]
Second: Nc1c(C(=O)N[C@@H]2COc3cc(N4CC5CCC(C4)N5)ccc3C2)sc2ncc(F)cc12 (single isomer, unassigned) [Example 1-18]
The IC50 of the first is lower: 50 to 200 nM for the first, over 2000 nM for the second. The first is the more potent here.

First: Cc1cnc2c(N)c(C(=O)N[C@H]3COc4cc(N5CCNCC5)ccc4C3)sc2n1 (single isomer, unassigned) [Example 1-21]
Second: Cc1cnc2c(N)c(C(=O)N[C@@H]3COc4cc(N5CCNCC5)ccc4C3)sc2n1 (single isomer, unassigned) [Example 1-22]
The IC50 of the first is lower: 1 to 50 nM for the first, 200 to 2000 nM for the second.

First: CCn1ccc2cc(C(=O)N[C@@H]3COc4cc(N5CC6CCC(C5)N6)ccc4C3)cnc21 (single isomer, unassigned) [Example 1-27]
Second: CCn1ccc2cc(C(=O)N[C@H]3COc4cc(N5CC6CCC(C5)N6)ccc4C3)cnc21 (single isomer, unassigned) [Example 1-28]
The IC50 of the first is higher: 200 to 2000 nM for the first, 1 to 50 nM for the second. The second is the more potent here.

Compared with `Cc1ccc2c(N)c(C(=O)N[C@@H]3COc4cc(N5CC6CCC(C5)N6)cc(F)c4C3)sc2n1` (single isomer, unassigned) [Example 1-30], `Cc1ccc2c(N)c(C(=O)N[C@@H]3COc4cc(N5CC6CC(C5)N6)cc(F)c4C3)sc2n1` (single isomer, unassigned) [Example 1-41] is lower in IC50: 200 to 2000 nM for the first, 1 to 50 nM for the second. The second is the more potent here.

First: Cc1ccc2c(N)c(C(=O)N[C@H]3COc4cc(N5CCNCC5)c(OC(F)(F)F)cc4C3)sc2n1 (single isomer, unassigned) [Example 1-31]
Second: Cc1ccc2c(N)c(C(=O)N[C@@H]3COc4cc(N5CCNCC5)c(OC(F)(F)F)cc4C3)sc2n1 (single isomer, unassigned) [Example 1-32]
The IC50 of the first is higher: 200 to 2000 nM for the first, 50 to 200 nM for the second.

First: Cc1nc2sc(C(=O)N[C@H]3COc4cc(N5CCNCC5)cc(F)c4C3)c(N)c2s1 (single isomer, unassigned) [Example 1-37]
Second: Cc1nc2sc(C(=O)N[C@@H]3COc4cc(N5CCNCC5)cc(F)c4C3)c(N)c2s1 (single isomer, unassigned) [Example 1-38]
The IC50 of the first is higher: over 2000 nM for the first, 1 to 50 nM for the second. The second is the more potent here.

First: Cc1nc2sc(C(=O)N[C@H]3COc4cc(N5CC6CCC(C5)N6)cc(F)c4C3)c(N)c2s1 (single isomer, unassigned) [Example 1-39]
Second: Cc1nc2sc(C(=O)N[C@@H]3COc4cc(N5CC6CCC(C5)N6)cc(F)c4C3)c(N)c2s1 (single isomer, unassigned) [Example 1-40]
The IC50 of the first is lower: 1 to 50 nM for the first, 200 to 2000 nM for the second.

First: Cc1ccc2c(N)c(C(=O)N[C@H]3COc4cc(N5CC6CC(C5)N6)cc(F)c4C3)sc2n1 (single isomer, unassigned) [Example 1-42]
Second: CO[C@H]1CN(c2ccc3c(c2)OC[C@H](NC(=O)c2sc4nc(C)ccc4c2N)C3)C[C@@H]1N (single isomer, unassigned) [Example 3-1]
The IC50 of the first is higher: 200 to 2000 nM for the first, 1 to 50 nM for the second.

Compared with `Cc1cnc2c(N)c(C(=O)N[C@H]3CCc4cc(N5CCNCC5)c(C)cc4C3)sc2n1` (single isomer, unassigned) [Example 2-34], `Cc1cnc2c(N)c(C(=O)N[C@@H]3CCc4cc(N5CCNCC5)c(C)cc4C3)sc2n1` (single isomer, unassigned) [Example 2-35] is higher in IC50: 50 to 200 nM for the first, over 2000 nM for the second.

Compared with `Cc1cnc2c(N)c(C(=O)N[C@H]3CCc4c(ccc(N5CCNCC5)c4C)C3)sc2n1` (single isomer, unassigned) [Example 2-36], `Cc1cnc2c(N)c(C(=O)N[C@@H]3CCc4c(ccc(N5CCNCC5)c4C)C3)sc2n1` (single isomer, unassigned) [Example 2-37] is lower in IC50: 200 to 2000 nM for the first, 1 to 50 nM for the second.

`CO[C@@H]1CN(c2ccc3c(c2)OC[C@H](NC(=O)c2sc4nc(C)ccc4c2N)C3)C[C@H]1N` (single isomer, unassigned) [Example 3-2] and `Cc1ccc2c(N)c(C(=O)N[C@H]3COc4cc(N5CCC[C@@](N)(C(F)(F)F)C5)ccc4C3)sc2n1` (single isomer, unassigned) [Example 3-3] fall in the same range of IC50: 1 to 50 nM for the first, 1 to 50 nM for the second.

`Cc1ccc2c(N)c(C(=O)N[C@H]3COc4cc(N5CCC[C@](N)(C(F)(F)F)C5)ccc4C3)sc2n1` (single isomer, unassigned) [Example 3-4] and `Cc1nc2sc(C(=O)N[C@H]3COc4cc(N5CC6CCC(C5)N6)ccc4C3)c(N)c2s1` [Example 1-23, N-((3R)-7-(3,8-diazabicyclo[3.2.1]octan-3-yl)chroman-3-yl)-6-amino-2-methylthieno[2,3-d]thiazole-5-carboxamide] fall in the same range of IC50: 1 to 50 nM for the first, 1 to 50 nM for the second.

`Cc1nc2sc(C(=O)N[C@@H]3COc4cc(N5CC6CCC(C5)N6)ccc4C3)c(N)c2s1` [Example 1-24, N-((3S)-7-(3,8-diazabicyclo[3.2.1]octan-3-yl)chroman-3-yl)-6-amino-2-methylthieno[2,3-d]thiazole-5-carboxamide] gave an IC50 of 200 to 2000 nM.
